Assay results from BigSolDB 2.1.

NC(=O)N1c2ccccc2C=Cc2ccccc21
Details	solubility (mole fraction)
in chloroform, 278.15 K	0.0577
in chloroform, 288.65 K	0.0627
in chloroform, 297.55 K	0.0679
in chloroform, 307.15 K	0.0756
in chloroform, 318.95 K	0.086
in chloroform, 327.95 K	0.0968
in cyclohexylamine, 287.25 K	0.0149
in cyclohexylamine, 302.35 K	0.0193
in cyclohexylamine, 317.65 K	0.0259
in cyclohexylamine, 332.85 K	0.0353
in cyclohexylamine, 348.15 K	0.05
in cyclohexylamine, 366.15 K	0.0657
in ethyl acetate, 281.35 K	0.00272
in ethyl acetate, 298.55 K	0.00436
in ethyl acetate, 306.55 K	0.00548
in ethyl acetate, 314.05 K	0.0068
in ethyl acetate, 326.85 K	0.00959
in ethyl acetate, 346.65 K	0.0142
in ethylene glycol, 279.15 K	0.00098
in ethylene glycol, 288.55 K	0.00243
in ethylene glycol, 316.85 K	0.00861
in ethylene glycol, 335.25 K	0.0189
in ethylene glycol, 346.55 K	0.0294
in ethylene glycol, 356.95 K	0.0429
in methyl acetate, 281.95 K	0.00521
in methyl acetate, 292.35 K	0.00665
in methyl acetate, 301.85 K	0.00843
in methyl acetate, 311.55 K	0.0109
